Assay results taken from patent publication US9216181B2 (Southwest Research Institute, priority 2011, dated 2015).
Structures can show the parent of a compound that is named as a salt. Where two headings read alike, the source gives them in different places.

Experiments:
BMP2 = experiment: Quantitative PCR (TaqMan, ΔΔCt) of BMP2 in human mesenchymal stem cells; assay type: cell-based; conditions: for fold induction at 10 µM: Homo sapiens, Mesenchymal stem cells, read-out: q-PCR Fold increase
Method: (§1) Human mesenchymal stem cells (LONZA, Catalog PT2501) were maintained in Mesenchymal stem cells basal media (MSCBM CAT#PT-3238). Early passage cells were plated in triplicate at 2×10^4 cells/cm^2 using six well tissue culture plates and grown in humidified 5% CO2 at 37° C. for 24 hours. Spent media was replaced by assay media of drugs to be tested in same media as above at 10 μM final concentration. Untreated cells were used as the control group. Total RNA were prepared using either TRI Reagent (Ambion, Cat. 9738), for subsequent TaqMan gene expression qPCR of BMP2. RNA concentration and integrity was assessed by absorbance 260/280 and electrophoresis in 1% Agarose with formaldehyde loading dye. For TaqMan gene expression, cDNA was synthesized from 2 μg of total RNA using the High Capacity cDNA Reverse Transcription Kit (Applied Biosystems, Cat. 4368814). The resulting cDNA were diluted 1:100 for TaqMan and amplified by real-time quantitative PCR. Gene-specific fluorescent labeled TaqMan primers for FAM-BMP2 (Applied Biosystems, Hs00154192.m1) and TaqMan reference VIC-18S ribosomal RNA (Applied Biosystems, 4310893E) were used to target gene of interest. A cocktail of universal master mix (Applied Biosystems, 4369016) were prepared individually for both set of primers which contained Taq Polymerase, dNTPs, and buffer. Template cDNA's were added separately to respective individual wells in triplicate samples. The PCR were performed on StepOne Plus Real Time System instrument (Applied Biosystems). The amplification program consisted of 1 cycle of 95° C. with 10 minute hold (hot start) followed by 50 cycles of 95° C. with 15 second annealing hold and 1 minute 60° C. specified acquisition hold. The Ct value of endogenous reference gene (i.e. 18 s) was used to control for input RNA and then used to normalize target gene (i.e. BMP2) tested from the same cDNA sample to calculate the Δ Ct, and then calibrated to an internal reference sample. Change in gene expression was determined by the expression ΔΔCt relative method.
18 compounds were confirmed positive by the more stringent qPCR techniques. […] Included in the tables is the target or common medical use for each compounds.

BMP-2 [1] = experiment: Real time PCR of BMP-2 gene expression in human MSC (Cells-to-Ct); assay type: cell-based; conditions: BMP-2 mRNA, hMSC, 5-10 μM, 24 hours, vs untreated
Method: Early passage human mesenchymal stem cells (MSC) were thawed from one frozen cryo-vial and seeded into two T-75 tissue culture flasks and incubated at 37° C. for 48 hours in Alpha MEM with 10% FBS. After three days and one re-feeding, the cells were trypsinized and re-suspended in pre-warmed media at 5×10^4 cells/mL to provide 5,000 cells per well in a 96 well plate and incubated overnight at 37° C. in 5% CO2.
Each well was washed in cold PBS, lysed at room temperature for five minutes, and stop reagent added to each well to stop the lysis reaction. The final lysate was kept cold at 4° C. and used immediately as the RNA template for the reverse transcription cDNA synthesis following the TAQMAN GENE EXPRESSION CELLS TO CT KIT instructions.
The cDNA synthesis was prepared on a separate sterile 96-well PCR plate and performed on the Step One Plus Real Time PCR System instrument (Applied Biosystems) with the programming set at 37° C. for 60 minutes and an inactivation hold of 95° C. for five minutes. The final cDNA reaction was kept cold and used as the template for the TAQMAN GENE Real-Time PCR step following the recommended instructions for TAQMAN GENE EXPRESSION CELLS TO CT KIT assay. […] Template cDNA's were added separately to respective individual wells in replicate samples.
The PCR was performed on the STEPONEPLUS Real-Time System instrument (Applied Biosystems). The amplification program consisted of 1 cycle of 95° C. with 10 minute hold (hot start) and followed by 50 cycles of 95° C. with 15-second annealing hold and 1-minute 60° C. specified acquisition hold.

BMP-2 [2] = experiment: BMP-2 fold change of JHU library compounds, confirmed by qPCR; assay type: cell-based, human; conditions: JHU library compounds; non-treated = 1.00
Description: To further verify the technique, a 2T3 mouse pre-osteoblast cell line derived from calvaria courtesy of Dr. Steve Harris, UTHSCSA, was utilized to visually screen the compounds of the BIOMOL library and JHU libraries, purchased from John Hopkins University including 2387 compounds (solution in wells). Specifically, Murine 2T3 were thawed from one frozen cryovial and re-seeded into two T-75 tissue culture flasks grown in Alpha MEM with 10% FBS, Glutamine, and Pen/Strip antibiotics. Cells were incubated in a humidified 37° C. under 5% CO2 for 48 hours or when cells reached 80% confluence. After reaching confluency, the 2T3 were trypsinized and resuspended in pre-warm growth media to a cell density of 5×10^4 cells/mL. Approximately 100 uL of cell suspension was seeded to a 96 well plate to give a final 5,000 cells per well. Plate was incubated overnight at 37° C. and spent media was aspirated and replace with 100 uL of growth media with 5-10 uM of presumptive drug compounds. A set of controls were untreated and treated with 10 uM of Lovastatin to be used as a visual reference morphological screening.
as §1, with “Total RNA were prepared using either TRI Reagent (Ambion, Cat. 9738), for subsequent TaqMan gene expression qPCR of BMP2.” left out, “Gene-specific fluorescent labeled TaqMan primers for FAM-BMP2 (Applied Biosystems, Hs00154192.m1) and TaqMan reference VIC-18S ribosomal RNA (Applied Biosystems, 4310893E) were used to target gene of interest.” left out, “The Ct value of endogenous reference gene (i.e. 18 s) was used to control for input RNA and then used to normalize target gene (i.e. BMP2) tested from the same cDNA sample to calculate the Δ Ct, and then calibrated to an internal reference sample.” left out
Included in the tables is the target or common medical use for each compounds.

[3] = test system: human mesenchymal stem cells (MSC); assay type: cell-based; design: key: *: Dose caused cell death; conditions: hMSC, 24 hrs
[4] = BMP2 mRNA, hMSC, 10 μM, vs untreated, 18S reference, BIOMOL library (Table 2)
[5] = BMP2 mRNA, hMSC, 10 μM, vs untreated, 18S reference, positive control compounds (Table 1)
[6] = positive control compounds (Table 1)

SMILES | fold induction at 10 µM (BMP2; [4]) | RT PCR Fold increase (BMP-2 [1]; BIOMOL library (Table 2)) | RT PCR Fold increase (BMP-2 [1]; [6]) | other results
N=C(N)N1CCc2ccccc2C1 [Debrisoquin sulfate] | 6.2 | 8.2 fold | – | –
CC(=O)O[C@@]12CO[C@@H]1C[C@H](O)[C@@]1(C)C(=O)[C@H](O)C3=C(C)[C@@H](OC(=O)[C@H](O)[C@@H](NC(=O)OC(C)(C)C)c4ccccc4)C[C@@](O)([C@@H](OC(=O)c4ccccc4)[C@H]21)C3(C)C [Docetaxil] | – | – | 11.0 fold | q-PCR Fold increase (BMP2; [5]): 2.7 fold
COC(=O)Nc1nc2ccc(Sc3ccccc3)cc2[nH]1 [Fenbendazole] | 2 | 6.6 fold | – | –
COC(=O)Nc1nc2cc(C(=O)c3ccc(F)cc3)ccc2[nH]1 [Flubendazole] | 1.7 | 5.6 fold | – | Fold change (BMP-2) (BMP-2 [2]): 10.00 fold
CC(C)C(=O)Nc1ccc([N+](=O)[O-])c(C(F)(F)F)c1 [Flutamide] | 1.6 | 9.7 fold | – | –
CC(C)n1c(/C=C/C(O)CC(O)CC(=O)[O-])c(-c2ccc(F)cc2)c2ccccc21.[Na+] (centres unmarked) [Fluvastatin Na] | – | – | 3.2 fold | q-PCR Fold increase (BMP2; [5]): 7.8 fold
COC(=O)c1ccc(O)c2nc3c(C=O)c(O)cc(O)c3nc12 [Lomofungin] | 14.2 | 32.6 fold | – | Fold change (BMP-2) (BMP-2 [2]): 26.00 fold
CNCCCC12CCC(c3ccccc31)c1ccccc12 [Maprotiline] | 2.4 | 3.6 fold | – | –
CC[C@H](C)C(=O)O[C@H]1CCC=C2C=C[C@H](C)[C@H](CC[C@@H]3C[C@@H](O)CC(=O)O3)[C@H]21 [Mevastatin] | – | – | 3.1 fold | fold induction at 10 µM (BMP2; [5]): 0.9
CCCCN1C[C@H](O)[C@@H](O)[C@H](O)[C@H]1CO [Miglustat] | 6.6 | 4.9 fold | – | –
CCCOc1ccc2nc(NC(=O)OC)[nH]c2c1 [Oxibendazole] | 1.4 | 4.5 fold | – | Fold change (BMP-2) (BMP-2 [2]): 18.00 fold
COc1cc2nc(N3CCN(C(=O)c4ccco4)CC3)nc(N)c2cc1OC [Prazosin] | 4 | 6.8 fold | – | –
COc1ccc(C[C@H](N)C(=O)N[C@H]2[C@@H](O)[C@H](n3cnc4c(N(C)C)ncnc43)O[C@@H]2CO)cc1 [Puromycin] | 54.6 | 122.3 fold | – | –
CCN(CC)CCCC(C)Nc1c2ccc(Cl)cc2nc2ccc(OC)cc12 (centres unmarked) [Quinacrine] | 95 | 52.9 fold | – | cell death ([3]; 5 uM): *Quinacrine; cell death ([3]; 10 uM): *Quinacrine; Fold change (BMP-2) (BMP-2 [2]): 722.00 fold
CC(C)=CC[C@@H](O)C1=CC(=O)c2c(O)ccc(O)c2C1=O [Shikonin] | – | – | 23.5 fold | fold induction at 10 µM (BMP2): 1.5
CCC(C)(C)C(=O)O[C@H]1C[C@@H](C)C=C2C=C[C@H](C)[C@H](CC[C@@H]3C[C@@H](O)CC(=O)O3)[C@H]21 [Simvastatin] | – | – | 4.2 fold | fold induction at 10 µM (BMP2): 2.3
CC(=O)O[C@H]1C(=O)[C@@]2(C)[C@H]([C@H](OC(=O)c3ccccc3)[C@]3(O)C[C@H](OC(=O)[C@H](O)[C@@H](NC(=O)c4ccccc4)c4ccccc4)C(C)=C1C3(C)C)[C@]1(OC(C)=O)CO[C@@H]1C[C@@H]2O [Taxol] | – | – | 3.7 fold | fold induction at 10 µM (BMP2; [5]): 4
CC(C)(C)c1ccc(C(O)CCCN2CCC(C(O)(c3ccccc3)c3ccccc3)CC2)cc1 (centres unmarked) [Terfenadine] | 10.4 | 13.9 fold | – | –
CC[C@]1(O)C[C@@H]2CN(CCc3c([nH]c4ccccc34)[C@@](C(=O)OC)(c3cc4c(cc3OC)N(C)[C@H]3[C@@](O)(C(=O)OC)[C@H](OC(C)=O)[C@]5(CC)C=CCN6CC[C@]43[C@@H]65)C2)C1 [Vinblastine sulfate] | – | – | 9.5 fold | fold induction at 10 µM (BMP2; [5]): 1.7; Fold change (BMP-2) (BMP-2 [2]): 64.00 fold
CC[C@]1(O)C[C@H]2CN(CCc3c([nH]c4ccccc34)[C@@](C(=O)OC)(c3cc4c(cc3OC)N(C=O)[C@H]3[C@@](O)(C(=O)OC)[C@H](OC(C)=O)[C@]5(CC)C=CCN6CC[C@]43[C@@H]65)C2)C1 [Vincristine sulfate] | – | – | 10.8 fold | fold induction at 10 µM (BMP2; [5]): 1.8; Fold change (BMP-2) (BMP-2 [2]): 57.00 fold
CC[C@]1(O)C[C@@H]2CN(CCc3c([nH]c4ccccc34)[C@@](C(=O)OC)(c3cc4c(cc3OC)N(C)[C@H]3[C@@](O)(C(N)=O)[C@H](O)[C@]5(CC)C=CCN6CC[C@]43[C@@H]65)C2)C1 [Vindesine] | – | – | 12.4 fold | fold induction at 10 µM (BMP2; [5]): 1.8
